Laboratory results from patent US20030224973A1, “Minimising body gain in insulin treatment” (priority 2002, published 2003).
Read-outs that look alike come from different tables or passages of the source.

Assays:
[1] = tested on: patients with type 1 diabetes; settings: for ANOVA of weight after 6 months of treatment, ITT, Mean (least square mean): type 1 diabetes, human soluble insulin as bolus, baseline weight as covariate
Source text: Material and Methods: A total of 460 patients with no clinically significant diseases or diabetic complications were exposed (287 men and 173 women).
(§1) The analysis is based upon an ANOVA model with treatment and country as fixed effects and weight at baseline as covariate.

[2] = tested on: adult patients with type 1 diabetes; assay: Example 1 b): 6-month extension trial (12 months of treatment), insulin detemir vs NPH insulin, human soluble insulin as meal related insulin; settings: for ANOVA of weight after 12 months of treatment, ITT, Mean (least square mean): human soluble insulin as meal related insulin; for body weight at End of trial, Mean: End of trial (12 months)
Source text: (§2) All patients were on a basal (twice-daily)-bolus regimen with human soluble insulin as meal related insulin:
as §1

[3] = tested on: patients with type 1 diabetes; assay: Example 5: 16-week three arm trial, insulin detemir morning and pre-dinner, insulin detemir morning and bedtime, NPH insulin morning and bedtime, insulin aspart with meals; type: in vivo, human; settings: for body weight at Baseline, Mean / body weight at End of trial, Mean: both detemir groups pooled; for body weight at End of trial, Mean: End of trial (16 weeks)
Experimental: All patients received insulin aspart (IAsp) with meals. The trial included a Screening Visit to assess patient eligibility and a Randomisation Visit (maximum 2 weeks after the Screening Visit). The following 16 week treatment period included 5 visits. In addition, patients were contacted every second day in the first two weeks (or longer if necessary) to ensure that optimal basal insulin dose was achieved fast and smoothly. A post-treatment telephone Follow-up was performed approximately one week after the last visit.
The study included 400 type 1 diabetic patients aged 18 or above with a BMI of ≦[…] and HbA1c<12%. The patients had had diabetes ≧12 months and had been treated on a basal/bolus regimen ≧2 months with a basal insulin requirement of ≧30% of the total daily insulin dose, and a total daily basal insulin dose below 100 IU. Patients were to have no major diabetic complications or other significant diseases.

[4] = tested on: patients with type 1 diabetes; assay: Example 2 b): 6-month extension trial (12 months of treatment), insulin detemir vs NPH insulin, IAsp as meal related insulin; type: in vivo, human; settings: for ANOVA of weight after 12 months of treatment, ITT, Mean (least square mean): IAsp as meal related insulin; for body weight at End of trial, Mean: End of trial (12 months)
Source text: A 6-month extension of a multi-centre, open-label, asymmetrically randomised, parallel trial.
Patients who agreed to participate in the extension period continued treatment without interruption.
Following completion of the 6-month initial period, the extension period included 3 visits (0, 3 and 6 months after the start of the extension period).
The patients were advised to maintain their usual diet and daily activities.
All patients who completed the 6-month treatment period in the trial described under Section a) above and who were able and willing to participate in the extension period were included. Thus, the Section b) trial included 316 patients.

[5] = tested on: patients with type 1 diabetes; settings: for ANOVA of weight after 6 months of treatment, ITT, Mean (least square mean): insulin aspart as bolus; for HbA, levels: After 6 months; for plasma glucose at 07:00: nightly plasma glucose profile, p<0.05
Source text: One of the secondary objectives of the study was to compare the regimens in terms of the safety profile, including the body weight of the patients.
The analysis is based upon an ANOVA model with treatment as fixed effect and weight at baseline as covariate.

[6] = tested on: patients with type 1 diabetes; assay: Example 6: 16-week three-group trial, insulin detemir at 12-hour intervals, insulin detemir morning and bedtime, NPH morning and bedtime, insulin aspart at meals; type: in vivo, human; settings: for average body weight gained: Morn_Bed groups; for body weight at Baseline, Mean / body weight at End of trial, Mean: both detemir groups pooled; for body weight at End of trial, Mean: End of trial (16 weeks)
Experimental: A 16 week, multi-centre, multi-national, open, randomised three-group parallel study comparing administration of insulin detemir at 12-hour intervals, insulin detemir morning and bedtime and NPH morning and bedtime in patients with type 1 diabetes
All patients received insulin aspart at meals. The trial included a Screening Visit to assess patient's eligibility and a Randomisation Visit, followed by a treatment period 16 of weeks. A post-treatment follow-up Visit was carried out approximately 1 week after the last visit.
The study included 409 type 1 diabetic patients aged 18 or above and HbA1c≦12%. The patients had had diabetes >12 months and had been treated on a basal (twice daily)/bolus regimen ≧2 months using an intermediate/long-acting insulin as a basal insulin and fast-acting human insulin or insulin analogue as bolus insulin.

[7] = tested on: patients with type 1 diabetes; assay: Example 3: 6-month open-label parallel trial, once daily insulin detemir vs NPH insulin, basal/bolus regimen with human soluble insulin; type: in vivo; settings: for ANOVA of weight after 6 months of treatment, ITT, Mean (least square mean): once daily basal, human soluble insulin at meals; for body weight at End of trial, Mean: End of trial (6 months)
Source text: All patients were on a basal/bolus insulin regimen with human soluble insulin as meal-related insulin. […] The trial included a screening visit to assess patient eligibility and a randomisation visit (maximum 3 weeks after the screening visit) followed by a six-month treatment period. In order to achieve glycaemic control, the investigator had contact with the patients at least every other working day during the first two weeks of treatment or as long as necessary to achieve glycaemic control. A post-treatment follow-up visit was performed 2-6 days after the last visit.
The study included 750 type 1 diabetic patients aged 18 years or above and having a HbAtc≦12%. […] The patients were to have no major diabetic complications or other significant diseases.

[8] = tested on: patients with type 2 diabetes; assay: Example 4: 6-month open parallel trial, insulin detemir vs NPH insulin once or twice daily, basal/bolus regimen with NovoRapid; type: in vivo, human; settings: for ANOVA of weight after 6 months of treatment, ITT, Mean (least square mean): NovoRapid with meals; for body weight at End of trial, Mean: End of trial (6 months)
Source text: Multicentre, open, randomised, parallel trial comprising a screening visit and a randomisation visit followed by a six month treatment period of basal/bolus therapy with either insulin detemir or NPH once or twice daily as needed. The patients received NovoRapid® with meals as bolus insulin throughout the trial.
The study included 506 type 2 diabetic patients aged 35 years or above with type 2 diabetes for ≧12 months treated with insulin or insulin analogues for at least 2 months, with a HbA1c≦12.0%, a basal insulin dose ≧30% of the total daily insulin dose and no other clinically relevant diseases were included in the trial.

[9] = tested on: adult patients with type 1 diabetes; settings: in vivo
Source text: as §2, §1

[10] = 16 weeks, Morn_Bed (morning and bedtime)
[11] = 12 months, difference between treatments
[12] = 12 months, not statistically significant
[13] = 6 months, difference between treatments

NPH insulin: comparator basal insulin in the trials [reference compound]
average body weight gained during the trial ([1]; 6 months): 0.7 kg | ANOVA of weight after 6 months of treatment, ITT, Mean (least square mean) ([1]; 6 months): 76.5 kg | ANOVA of weight after 12 months of treatment, ITT, Mean (least square mean) ([2]; 12 months): 76.9 kg | weight gain ([2]; 12 months, statistically significant): 1.4 kg | body weight at Baseline, Mean [2]: 75.8 kg | body weight at End of trial, Mean [2]: 77.2 kg | proportion of patients with serious adverse events ([2]; during 12 months): 13.4% | ANOVA of Weight after 16 Weeks of Treatment, Adjusted for Change in HbA1c, ITT, Mean (least square mean) [3, 10]: 76.40 kg | body weight at Baseline, Mean [3]: 74.5 kg | body weight at End of trial, Mean [3]: 75.3 kg | average body weight gained during the trial ([4]; 12 months): 1.2 kg | ANOVA of weight after 12 months of treatment, ITT, Mean (least square mean) ([4]; 12 months): 72.8 kg | body weight at Baseline, Mean [4]: 71.5 kg | body weight at End of trial, Mean [4]: 72.7 kg | ANOVA of weight after 6 months of treatment, ITT, Mean (least square mean) ([5]; 6 months): 71.8 kg | HbA, levels [5]: 7.64% | plasma glucose at 07:00 [5]: 9.5 mM/L | average body weight gained ([5]; over 6 months): 0.7 kg | ANOVA of Weight after 16 Weeks of Treatment, Adjusted for Change in HbA1c, ITT, Mean (least square mean) [6, 10]: 76.04 kg | average body weight gained ([6]; 16 weeks): 0.7 kg | body weight at Baseline, Mean [6]: 74.5 kg | body weight at End of trial, Mean [6]: 75.3 kg | average body weight gained during the trial ([7]; 6 months): 0.4 kg | ANOVA of weight after 6 months of treatment, ITT, Mean (least square mean) ([7]; 6 months): 76.7 kg | body weight at Baseline, Mean [7]: 76.1 kg | body weight at End of trial, Mean [7]: 76.5 kg | increase of mean body weight ([8]; 6 months): 1.3 kg | ANOVA of weight after 6 months of treatment, ITT, Mean (least square mean) ([8]; 6 months): 88.6 kg | body weight at Baseline, Mean [8]: 89.7 kg | body weight at End of trial, Mean [8]: 91.0 kg

N^εB29-tetradecanoyl des(B30) human insulin [Insulin detemir]
9-point blood glucose profiles, insulin detemir and NPH ([1]; 6 months): comparable | average body weight lost during the trial ([1]; 6 months): 0.5 kg | ANOVA of weight after 6 months of treatment, ITT, Mean (least square mean) ([1]; 6 months): 75.4 kg | HbA1c absolute mean difference between treatments (insulin detemir-NPH) ([1]; after 6 months, 95% CI [−0.05, 0.22]): 0.08 % point | number of patients with hypoglycaemic episodes between the two treatments ([1]; in vivo): not statistically significantly different | safety profiles between the two treatments ([1]; in vivo): comparable | intra-patient variation in fasting blood glucose (FBG) vs NPH ([1]; not statistically significant, p=0.06): tendency towards lower intra-patient variation | difference in FPG between treatments ([1]; p=0.78): No statistically significant difference | ANOVA of weight after 12 months, insulin detemir − NPH, Mean [2, 11]: -1.66 kg | ANOVA of weight after 12 months of treatment, ITT, Mean (least square mean) ([2]; 12 months): 75.2 kg | weight loss [2, 12]: 0.3 kg | body weight at Baseline, Mean [2]: 76.6 kg | body weight at End of trial, Mean [2]: 76.3 kg | HbA1c ([2]; after 12 months of treatment): 7.9% | difference in body weight between groups ([2]; after 12 months of treatment, p=0.002): 1.7 kg | Weight, Pairwise Comparison, Mean Difference Detemir Morn_Bed - NPH Morn_Bed ([3]; 16 weeks): -0.6 kg | Weight, Pairwise Comparison, Mean Difference Detemir Morn_Dinner - Detemir Morn_Bed ([3]; 16 weeks): -0.7 kg | Weight, Pairwise Comparison, Mean Difference Detemir Morn_Dinner - NPH Morn_Bed ([3]; 16 weeks): -1.3 kg | ANOVA of Weight after 16 Weeks of Treatment, Adjusted for Change in HbA1c, ITT, Mean (least square mean) [3, 10]: 75.81 kg | ANOVA of Weight after 16 Weeks of Treatment, Adjusted for Change in HbA1c, ITT, Mean (least square mean) ([3]; 16 weeks, Morn_Dinner (morning and pre-dinner)): 75.12 kg | Weight in both insulin detemir groups compared with NPH insulin ([3]; 16 weeks, statistically significant): lower | body weight at Baseline, Mean [3]: 76.3 kg | body weight at End of trial, Mean [3]: 76.2 kg | ANOVA of weight after 12 months of treatment, ITT, Mean (least square mean) ([4]; 12 months): 71.5 kg | ANOVA of weight after 12 months, insulin detemir − NPH, Mean [4, 11]: -1.34 kg | average body weight lost during the trial [4, 12]: 0.1 kg | body weight at Baseline, Mean [4]: 71.4 kg | body weight at End of trial, Mean [4]: 71.3 kg | difference in body weight between the groups ([4]; after 12 months, statistically significant): 1.3 kg | ANOVA of weight after 6 months of treatment, ITT, Mean (least square mean) ([5]; 6 months): 70.9 kg | Fasting plasma glucose difference, insulin detemir vs NPH insulin ([5]; 6 months, not statistically significant, p=0.097): -0.76 mM | difference in mean body weight between the groups ([5]; 6 months, statistically significant): 1 kg | HbA, levels [5]: 7.60% | Body weight (baseline adjusted) vs NPH insulin ([5]; at the end of the trial, p<0.001): significantly lower | general safety profile between the two treatments ([5]; in vivo): similar | plasma glucose at 07:00 [5]: 7.6 mM/L | average body weight lost ([5]; over 6 months, not statistically significant): 0.2 kg | shapes of the nightly plasma glucose profiles vs NPH insulin ([5]; p=0.05): smoother and more stable | Weight, Pairwise Comparison, Mean Diff. Detemir Morn_Bed - NPH Morn_Bed ([6]; 16 weeks): -0.6 kg | ANOVA of Weight after 16 Weeks of Treatment, Adjusted for Change in HbA1c, ITT, Mean (least square mean) ([6]; 16 weeks, 12 h_interval): 75.20 kg | average change of body weight ([6]; 16 weeks, 12 h_interval group): maintained their weight | ANOVA of Weight after 16 Weeks of Treatment, Adjusted for Change in HbA1c, ITT, Mean (least square mean) [6, 10]: 75.41 kg | average body weight gained ([6]; 16 weeks): 0.2 kg | Weight, Pairwise Comparison, Mean Diff. Detemir 12 h_interval - NPH Morn_Bed ([6]; 16 weeks, first comparison, p=0.0061): -0.8 kg | Weight, Pairwise Comparison, Mean Diff. Detemir 12 h_interval - NPH Morn_Bed ([6]; 16 weeks, third comparison as printed, p=0.4772): -0.2 kg | body weight at Baseline, Mean [6]: 76.3 kg | body weight at End of trial, Mean [6]: 76.2 kg | average body weight lost during the trial ([7]; 6 months): 0.2 kg | ANOVA of weight after 6 months, insulin detemir − NPH, Mean [7, 13]: -0.52 kg | ANOVA of weight after 6 months of treatment, ITT, Mean (least square mean) ([7]; 6 months): 76.2 kg | body weight at Baseline, Mean [7]: 76.5 kg | body weight at End of trial, Mean [7]: 76.3 kg | increase of mean body weight ([8]; 6 months): 0.4 kg | ANOVA of weight after 6 months of treatment, ITT, Mean (least square mean) ([8]; 6 months): 87.8 kg | ANOVA of weight after 6 months, insulin detemir − NPH, Mean [8, 13]: -0.79 kg | body weight at Baseline, Mean [8]: 85.4 kg | body weight at End of trial, Mean [8]: 85.8 kg | proportion of patients with serious adverse events [9]: 9.1% | risk of hypoglycemia during the night, relative risk (detemir/NPH) [9]: 0.71
